Where “and” joins values, the source holds several entries; their conditions need not be identical. Identical values can stand only once. Like-named read-outs stand apart in the source and are kept apart here.
How the values were obtained:
[1] = system: subcutaneous TUBO tumors; assay: Subcutaneous TUBO tumor growth and survival in BALB/neuT mice, sunitinib malate with cancer vaccine; assay type: in vivo, mouse; conditions: FIG. 33D; Sutent 20 mg/kg for 34 days combined with cancer vaccine
Procedure: The Anti-tumor efficacy of sunitinib malate in combination with an anti-cancer DNA vaccine was investigated in BALB/neuT transgenic female mice. Heterozygote BALB/neuT transgenic female mice that express rat Her-2 (rHer-2) tumor associate antigen were implanted subcutaneously with 1e6 TUBO cells expressing rHer-2 which are derived from the spontaneous mammary tumors of BALB/neuT mice. After 7 days post tumor cell implantation, the mice were dosed once a day orally with either vehicle or sunitinib malate at doses as indicated in the legends. Three days after the initiation of sunitinib malate therapy, the mice were immunized with regimens comprised of either (a) control vaccine that expresses an antigen that is not expressed in the tumor or the mouse or (b) DNA cancer vaccine construct that expresses a rat Her-2 antigen of SEQ ID NO: 54 (rHER2) which is expressed in the tumor and the mouse. The tumor growth rate was analyzed by measuring the long (a) and short diameter (b) of the subcutaneous TUBO tumors twice a week and calculating the volume as a×b^2×0.5 mm^3. The average and standard error of the mean of the tumor volumes from 10 mice per each treatment group are plotted against the days after tumor implantation. […]

[2] = Kinetics of blood sunitinib by LC/MS/MS in BALB/neuT mice with subcutaneous TUBO tumors; assay type: in vivo, mouse; conditions: for concentration at 2 h: peak at 2 hrs
Procedure: The kinetics of blood sunitinib was investigated in BALB/neuT mice with subcutaneous TUBO tumors. Briefly, 20 mice per each treatment group were given Sutent orally, at 20 mg/kg once a day (SID) or at 10 mg/kg twice a day (BID) with 6 hr intervals, 6 days after tumor implantation. Submandibular blood from 2-3 mice was collected into lithium heparin tubes at several time points after Sutent dosing as indicated (0, 2, 4, 6, 8, 10, 12, and 24 hr). The plasma supernatant was recovered from the tubes after centrifugation at ×1000 g for 15 min. and the sunitinib levels from the plasma samples were measured by LC/MS/MS. The mean and standard error of the mean of each group at each time point is plotted.

[3] = system: Myeloid Derived Suppressor Cells (MDSC); assay: Adoptively transferred MDSC recovered from spleen of BALB/c mice dosed with sunitinib; assay type: in vivo, mouse; conditions: CFSE+, CD3−, GR1+, CD11b+ cells, 2 days post adoptive transfer, vehicle 17470 +/− 2017
Procedure: To generate MDSC enriched splenocytes, TUBO cells (1×10^6) were implanted into the flanks of 5 BALB/neuT mice, and left for approx. 20-30 days until tumor volume reached between 1000-1500 mm^3. Mice were then sacrificed, spleens removed and the MDSC enriched splenocytes recovered. Splenocytes were labeled for 10 minutes with 5 μM CFSE, washed with PBS and counted. Labeled cells were subsequently resuspended at 5×10^7 splenocytes/ml in PBS solution and adoptively transferred via an i.v. tail vein injection into naïve BALB/c recipient mice. Three days prior to adoptive transfer, the recipient mice began bi-daily dosing with vehicle or sunitinib malate (Sutent) at 5 mg/kg, 10 mg/kg and 20 mg/kg. Following adoptive transfer, recipient mice continued to receive bi-daily dosing of Vehicle or sunitinib for two further days, after which point the mice were sacrificed, spleens removed, splenocytes recovered and processed for phenotypic analysis.
Splenocytes were counted and resuspended at 5×10^6 cells/ml in FACS staining buffer (PBS, 0.2% (w/v) bovine serum albumin, and 0.02% (w/v) Sodium Azide). For flow cytometry staining of splenocytes, 2.5×10^6 cells were first incubated with anti-bodies to CD16/CD32, 10 minutes at 4° C., to block Fc receptors and minimize non-specific binding. Splenocytes were then stained for 20 minutes at 4° C. with appropriate fluorophore conjugated antibodies (Biolegend) to murine cell surface markers. For T cells (anti-CD3 (Pacific Blue), clone 17A2) and for MDSC (anti-GR-1 (APC), clone RB6-8C5 and anti-CD11b (PerCp Cy5.5), clone M1/70). A live/dead stain was also included. […] To monitor the effect of Sunitinib or Vehicle on the adoptively transferred MDSC survival, we calculated the percentage of CFSE+,CD3−,GR1+,CD11b+ in the live, singlet gate. We then determined the number of adoptively transferred MDSC per spleen by calculating what actual cell number the percentage represented of total splenocytes count. Data was analyzed by FloJo and Graph pad software.

[4] = system: phosphorylated STAT3; assay: Phosphor-STAT3 ELISA of spleen extracts of TUBO tumor bearing BALB/neuT mice after Sutent; assay type: in vivo, mouse
Procedure: (§1) The acute effect of Sutent on the phosphorylation status of STAT3 in the spleen was investigated in a subcutaneous tumor mouse model to evaluate the direct immunomodulatory effects of the compound. Briefly, 10-12 week old female BALB/neuT mice were implanted with 1e6 TUBO cells subcutaneously in the right flank. After forty one days post tumor implant, Sutent was given by oral gavage at 20 mg/kg. At 0, 1, 3, 7 and 24 hrs post Sutent dosing, three animals per timepoint were sacrificed under IAUCUC guidelines and spleens were immediately snap frozen in liquid nitrogen to preserve the phosphorylation status. Spleens from female BALB/c mice were snap frozen to use as healthy mice controls.
(§2) Snap frozen spleens were homogenized at 100 mg tissue per 500 μL lysis buffer (70 mM NaCl, 50 mM β-glycerol phosphate, 10 mM HEPES, 1% Triton X-100, 100 mM Na3VO4, 100 mM PMSF, 1 mg/mL leupeptin) using a polytron tissue homogenizer. Resulting digests were centrifuged at 10,000 g for 15 minutes. The supernatant was isolated and protein concentrations were determined using BCA protein assay kit (Pierce, Rockford, Ill.). Forty micrograms of protein were added to each well of either a total STAT3 (eBioscience, cat no. 85-86101-11) or phosphor-STAT3 (eBioscience, cat no. 85-86102-11) ELISA Kit. Relative levels of either protein were compared with standards provided in the kit and with standards purchased independently (Signaling Technologies, cat no. 9333-S).

[5] = system: total STAT3; assay: Total STAT3 ELISA of spleen extracts of TUBO tumor bearing BALB/neuT mice after Sutent; assay type: in vivo, mouse
Procedure: as §1, §2

[6] = Mendel et al.; cited from earlier work
[7] = system: 293 cells; assay: Expression of PSMA constructs in transfected 293 cells by FACS; assay type: cell-based; conditions: 293 cells transfected with PJV7563 vector, stained with mouse anti-PSMA antibody three days later; cell surface expression
Procedure: The expression of the PSMA cytosolic, secreted, and modified antigens was determined by FACS. Mammalian 293 cells were transfected with the PJV7563 PMED vectors encoding the various immunogenic PSMA polypeptides. Three days later, the 293 cells were stained with mouse anti-PSMA antibody, followed with a fluorescent conjugated (FITC) rat anti-mouse secondary antibody.

[8] = system: human PSMA; assay: ELISA, serum anti-PSMA antibody titers after PMED DNA vaccination; assay type: in vivo; conditions: Example 7, FIG. 28; Pasteur and C57BL/6 mice; day 35; within the same strain
Procedure: Serum was subjected to enzyme-linked immunosorbent assays (ELISA) to determine the anti-PSMA and anti-PSCA antibody titers. In brief, ELISA plates were coated with 1 μg/ml of human PSMA or PSCA and incubated overnight at 4° C. Plates were then blocked and incubated at RT for 1 h with 1% bovine serum albumin (BSA). Each serum sample was serially diluted in duplicate starting at a 1:100 dilution and incubated for 1 h at RT. After washing, a horseradish-peroxidise (HRP)-conjugated goat anti-mouse polyclonal IgG antibody was incubated at RT for 1 h. After washing, the TMB Peroxidase EIA-Substrate was incubated at RT for 30 min. The colorimetric reaction was stopped by addition 1N sulfuric acid and the absorbance then read at 450 nm. Titration curves were plotted for each serum sample (sample dilution versus absorbance). The serum titer (subsequently transformed into reciprocal titer) was then taken as the most dilute serum sample tested with an optical density (OD) value of above the lower limit of detection (LLOD; background plus 3 standard deviations) or the serum dilution calculated to achieve an OD value of 1.0. […]
The anti-PSMA and anti-PSCA antibody titers in the serum was determined using ELISA as described in Example 5. […]
Antibody responses induced by the modified and full-length PSMA vaccines were measured in serum from each animal collected on day 35. […]

[9] = system: hPSMA full-length protein; assay: IFN-γ ELISPOT, hPSMA modified versus full-length DNA vaccine in C57BL/6 mice; assay type: in vivo, human; conditions: Example 7, FIG. 26; C57BL/6, PMED days 0, 14, 28; day 35
Source text: The immune responses induced by DNA vaccination using a construct encoding an immunogenic PSMA polypeptide (the “human PSMA modified antigen” or “hPSMA modified”) consisting 15-750 amino acids (aa) of the native human PSMA protein of SEQ ID NO: 1 were compared with those induced by the native human full-length PSMA protein (hPSMA full length). Groups of female C57BL/6 mice or female Pasteur (HLA-A2/DR1) transgenic mice were primed on day 0 and boosted on days 14, 28 by PMED administration with a 2 μg dose of a DNA vaccine encoding either hPSMA full-length or hPSMA modified protein. Mice were bled and sacrificed on day 35 (7 days after the third vaccination) and T cell immune responses against the hPSMA full-length protein were determined in splenocytes by IFN-γ ELISPOT assay. For C57BL/6 mice, single cell suspensions of 5×10^5 splenocytes from individual animals were plated per well with […] purified hPSMA protein, 5×10^4 TRAMP-C2 cells alone, or TRAMP-C2 cells expressing hPSMA or a PSMA-PSA-PSCA fusion protein. […] Responses in Pasteur mice were also determined using 10 μg/ml purified PSMA protein or 5×10^4 SK-Mel5 cells that had been transduced with Adenoviral vectors expressing a control protein (Ad-eGFP) or the full-length human PSMA protein (Ad-hPSMA). […] The number of IFN-γ SFC was counted by a CTL reader. […]

[10] = intravenous infusion, cited from earlier work
[11] = 1 hr after Sutent 20 mg/kg oral gavage
[12] = 3 hrs after Sutent 20 mg/kg oral gavage
[13] = 7 hrs after Sutent 20 mg/kg oral gavage
[14] = 24 hrs after Sutent 20 mg/kg oral gavage

## CCN(CC)CCNC(=O)c1c(C)[nH]c(/C=C2\C(=O)Nc3ccc(F)cc32)c1C [Sunitinib, butanedioic acid, hydroxy-, (2S)-, compound with N-[2-(diethylamino)ethyl]-5-[(Z)-(5-fluoro-1,2-dihydro-2-oxo-3H-indol-3-ylidine)methyl]-2,4-dimethyl-1H-pyrrole-3-carboxamide (1:1)]
[1]
  animals with significantly impaired progression of the tumor after discontinuation of Sutent treatment: 60 % of the animals
[2]; 10 mg/kg BID orally, after the second dose
  time by which sunitinib cleared the blood: ≤ 18 h
[2]; 20 mg/kg SID orally, post Sutent dosing
  time by which sunitinib cleared the blood: ≤ 12 h
[2]; BALB/neuT, mouse, plasma, oral, 10 mg/kg BID (6 hr interval) orally, read-out: blood sunitinib level
  concentration at 2 h: > 0.05 µg/mL
[2]; BALB/neuT, mouse, plasma, oral, 10 mg/kg BID orally, by 4 hrs, read-out: blood sunitinib level
  concentration at 4 h: < 0.05 µg/mL
[2]; BALB/neuT, mouse, plasma, oral, 20 mg/kg SID orally, at 6 hrs, read-out: blood sunitinib level
  concentration at 6 h: 0.05 µg/mL
[2]; BALB/neuT, mouse, plasma, oral, 20 mg/kg SID orally, read-out: blood sunitinib level
  concentration at 2 h: > 0.05 µg/mL
[3]; Sunitinib 5 mg/kg bi-daily
  MDSC #/spleen Mean +/− SEM: 10980 +/− 1082
[3]; Sunitinib 10 mg/kg bi-daily
  MDSC #/spleen Mean +/− SEM: 4207 +/− 338
[3]; Sunitinib 20 mg/kg bi-daily
  MDSC #/spleen Mean +/− SEM: 4440 +/− 440
[4]; [11]
  Phospho-STAT3 relative level, Mean: 0.23
  Phospho-STAT3 relative level, individual values: 0.26 and 0.25 and 0.19
[4]; [12]
  Phospho-STAT3 relative level, Mean: 0.19
  Phospho-STAT3 relative level, individual values: 0.19 and 0.15 and 0.22
[4]; [13]
  Phospho-STAT3 relative level, Mean: 0.27
  Phospho-STAT3 relative level, individual values: 0.19 and 0.31 and 0.29
[4]; [14]
  Phospho-STAT3 relative level, Mean: 1.44
  Phospho-STAT3 relative level, individual values: 1.54 and 1.30 and 1.47
[5]; [11]
  Total STAT3 relative level, Mean: 0.09
  Total STAT3 relative level, individual values: 0.12 and 0.08 (2×)
[5]; [12]
  Total STAT3 relative level, Mean: 0.13
  Total STAT3 relative level, individual values: 0.15 and 0.09 and 0.16
[5]; [13]
  Total STAT3 relative level, Mean: 0.08
  Total STAT3 relative level, individual values: 0.10 and 0.07 and 0.08
[5]; [14]
  Total STAT3 relative level, Mean: 0.08
  Total STAT3 relative level, individual values: 0.08
[6]
  minimum sunitinib blood level necessary to effectively inhibit tumor growth in monotherapy: 50 ng/mL

## full length human PSMA (SEQ ID NO: 1): native human full-length PSMA protein (aa 1-750), SEQ ID NO: 1; tested as DNA vaccine
[7]
  Average mean fluorescent intensity: 6425
[8]
  serum anti-PSMA antibody titers: equivalent anti-PSMA antibody titer
[9]
  IFN-γ T cell responses to TRAMP C2-PSMA or purified hPSMA protein: equivalent T cell immune responses

## CP-870893: fully human agonistic CD40 monoclonal antibody, SEQ ID NO: 40 and 41
[10]; patients with advanced solid tumors
  maximum tolerated dose (MTD): 0.2 mg/kg
[10]; phase I clinical study
  dose-limiting toxicities: grade 3 CRS and grade 3 urticaria

From patent US11110158B2, “Prostate-associated antigens and vaccine-based immunotherapy regimens” (Pfizer Inc., priority 2012, dated 2021)
